31 compounds from ChEMBL document CHEMBL3045096, “Pharmacophore modeling and 3D-QSAR (CoMSIA) studies for structural requirements of some triazine derivatives as G-quadruplex binders for telomerase inhibition” (Med Chem Res, 2013) can be followed below.

SMILES strings stand for the structures.

The experiment deals with Telomerase reverse transcriptase (Homo sapiens, UniProt O14746). The experiment is described as follows: Inhibition of telomerase (unknown origin).
Chain of Telomerase reverse transcriptase (O14746 whole entry): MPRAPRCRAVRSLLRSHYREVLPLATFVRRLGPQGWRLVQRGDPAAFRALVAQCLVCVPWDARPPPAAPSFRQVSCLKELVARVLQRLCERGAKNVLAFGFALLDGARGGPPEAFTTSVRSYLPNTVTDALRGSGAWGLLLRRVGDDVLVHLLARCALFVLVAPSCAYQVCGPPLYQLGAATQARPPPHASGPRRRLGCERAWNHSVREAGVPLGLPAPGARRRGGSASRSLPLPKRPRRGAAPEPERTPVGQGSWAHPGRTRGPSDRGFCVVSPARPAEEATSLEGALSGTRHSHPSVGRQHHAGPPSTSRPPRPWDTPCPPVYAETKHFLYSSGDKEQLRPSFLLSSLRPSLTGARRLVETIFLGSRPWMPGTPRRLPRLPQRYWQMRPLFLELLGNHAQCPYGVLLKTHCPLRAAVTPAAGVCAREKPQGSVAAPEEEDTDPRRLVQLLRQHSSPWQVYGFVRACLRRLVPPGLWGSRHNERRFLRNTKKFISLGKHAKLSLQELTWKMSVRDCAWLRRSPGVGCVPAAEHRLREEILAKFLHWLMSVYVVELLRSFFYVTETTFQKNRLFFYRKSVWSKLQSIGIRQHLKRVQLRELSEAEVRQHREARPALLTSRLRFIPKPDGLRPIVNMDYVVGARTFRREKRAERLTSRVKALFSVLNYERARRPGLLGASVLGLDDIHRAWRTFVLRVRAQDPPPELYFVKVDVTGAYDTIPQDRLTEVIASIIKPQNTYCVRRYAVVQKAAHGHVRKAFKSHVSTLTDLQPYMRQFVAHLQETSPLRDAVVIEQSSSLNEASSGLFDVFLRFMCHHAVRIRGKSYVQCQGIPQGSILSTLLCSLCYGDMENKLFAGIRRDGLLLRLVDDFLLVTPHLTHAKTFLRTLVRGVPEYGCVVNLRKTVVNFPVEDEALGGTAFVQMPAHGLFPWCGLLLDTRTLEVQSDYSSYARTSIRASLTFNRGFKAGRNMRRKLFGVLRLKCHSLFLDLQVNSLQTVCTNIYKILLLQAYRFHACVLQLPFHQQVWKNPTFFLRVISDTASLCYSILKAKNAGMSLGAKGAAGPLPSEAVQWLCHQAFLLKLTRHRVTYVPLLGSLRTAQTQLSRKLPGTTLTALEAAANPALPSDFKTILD
In general, IC50 refers to the concentration at which inhibition is half-maximal. Read a high IC50 as lower potency. Turning to `N=C(N)c1ccc(Nc2nc(N)nc(Nc3ccc(C(=N)N)cc3)n2)cc1`, it took 740 nM to reach half-maximal inhibition (IC50).

Turning to `Cc1cc(N)c2cc(Nc3nc(N)nc(Nc4ccc5nc(C)cc(N)c5c4)n3)ccc2n1`, 51 nM corresponded to half-maximal inhibition (IC50). This IC50 lies about 15-fold lower than the previous one.

Compound `CSc1nc(Nc2ccc3nc(C)cc(N)c3c2)nc(N(C)c2ccc3ncccc3c2)n1` showed a 50% inhibitory concentration (IC50) of 3500 nM.

Regarding `CC[n+]1c(C)cc(N)c2cc(Nc3nc(N)nc(Nc4ccc5c(c4)c(N)cc(C)[n+]5CC)n3)ccc21`, the IC50 stood at 56 nM.

`Cc1cc(N)c2cc(Nc3ccnc(Nc4ccc5nc(C)cc(N)c5c4)n3)ccc2n1`: half-maximal inhibition (IC50) required 490 nM.

The compound `COc1cc(C)nc2ccc(Nc3nc(Nc4ccc5nc(C)cc(N)c5c4)nc(SC)n3)cc12` showed a half-inhibitory concentration (IC50) of 2300 nM.

As for `CSc1nc(Nc2ccc3c(c2)c(=N)cc(C)n3C)nc(Nc2ccc3c(c2)c(=N)cc(C)n3C)n1`, the IC50 was 950 nM. This IC50 lies about 2.4-fold lower than the previous one.

`CNc1nc(Nc2ccc3nc(C)cc(N)c3c2)nc(Nc2ccc3nc(C)cc(N)c3c2)n1` yielded an IC50 of 510 nM.

In turn, `Cc1cc(N)c2cc(Nc3nc(N)nc(Nc4ccc5c(c4)c(N)cc(C)[n+]5C)n3)ccc2[n+]1C` displayed an IC50 of 250 nM. Against the preceding compound, the IC50 is about 2-fold lower.

`CSc1nc(Nc2ccc3nc(C)ccc3c2)nc(Nc2ccc3nc(C)cc(N)c3c2)n1` displayed an IC50 of 1000 nM. Against the preceding compound, the IC50 is about 4-fold higher.

Compound `CSc1nc(Nc2ccc(C#N)cc2)nc(Nc2ccc3nc(C)cc(N)c3c2)n1` registered an IC50 of 3400 nM.

Compound `CCc1cc(Nc2nc(Nc3ccc4nc(C)cc(N)c4c3)nc(SC)n2)ccn1` had an IC50 of 2200 nM. This IC50 is about 1.5-fold lower than that of the compound before.

In turn, `COc1ccc2nccc(Nc3nc(Nc4ccc5nc(C)cc(C)c5c4)nc(SC)n3)c2c1` returned an IC50 of 3300 nM. Against the preceding compound, the IC50 is about 1.5-fold higher.

Consider `CSc1nc(Nc2ccc3nc(C)cc(C)c3c2)nc(Nc2ccc3nc(C)cc(N)c3c2)n1`, for which the IC50 came to 3400 nM. The IC50 values of the last two compounds are within 1.5-fold of each other.

For `Cc1cc(N(C)C)c2cc(Nc3nc(Cl)nc(Nc4ccc5nc(C)cc(N(C)C)c5c4)n3)ccc2n1`, the half-maximal inhibitory concentration (IC50) is 3000 nM. The IC50 values of the last two compounds are within 1.5-fold of each other.

On to `CSc1nc(Nc2ccc3nc(C)cc(N(C)C)c3c2)nc(Nc2ccc3nc(C)cc(N(C)C)c3c2)n1`, for which the 50% inhibitory concentration (IC50) turned out to be 41 nM.

`COc1cc(C)nc2ccc(Nc3nc(Nc4ccc5nc(C)cc(OC)c5c4)nc(SC)n3)cc12` displayed an IC50 of 3900 nM.

On to `CSc1nc(Nc2ccc3nc(C)cc(C)c3c2)nc(Nc2ccnc3ccccc23)n1`, for which the IC50 is 3400 nM.

Take `Cc1cc(N)c2cc(NC(=N)NC(=N)Nc3ccc4nc(C)cc(N)c4c3)ccc2n1`: the IC50 stood at 2000 nM.

In turn, `Cc1cc(N)c2cc(Nc3nc(Nc4ccc5c(c4)c(N)cc(C)[n+]5C)nc(N(C)C)n3)ccc2[n+]1C` displayed a half-maximal inhibitory concentration (IC50) of 220 nM.

Turning to `CSc1nc(Nc2ccc3nc(C)cc(N)c3c2)nc(Nc2ccc3nc(C)cc(N(C)C)c3c2)n1`, it took 340 nM to reach half-maximal inhibition (IC50). This IC50 lies about 1.5-fold higher than the previous one.

Turning to `CSc1nc(Nc2ccc3ncccc3c2)nc(Nc2ccc3nc(C)cc(N)c3c2)n1`, the IC50 was determined as 2600 nM.

For `CCN(CC)c1nc(Nc2ccncc2)nc(Nc2ccc3nc(C)cc(C)c3c2)n1`, 3400 nM corresponded to half-maximal inhibition (IC50).

In the case of `CCN(CC)c1nc(Nc2ccc3ncccc3c2)nc(Nc2ccc3nc(C)cc(N)c3c2)n1`, the IC50 was found to be 2500 nM.

`CSc1nc(Nc2ccc3nc[nH]c3c2)nc(Nc2ccc3nc(C)cc(C)c3c2)n1`: it took 3300 nM to reach half-maximal inhibition (IC50). This IC50 and that of the compound before are within 1.5-fold of each other.

In the case of `CSc1nc(Nc2cccc(C(=N)N)c2)nc(Nc2ccc3nc(C)cc(N)c3c2)n1`, the IC50 was 3300 nM.

The compound `C[n+]1c2ccccc2c(N)c2cc(Nc3nc(N)nc(Nc4ccc5c(c4)c(N)c4ccccc4[n+]5C)n3)ccc21` registered an IC50 of 890 nM.

`C[n+]1cccc2cc(Nc3nc(N)nc(Nc4ccc5c(ccc[n+]5C)c4)n3)ccc21` gave a concentration for half-maximal inhibition (IC50) of 130 nM. This IC50 lies about 6.8-fold lower than the previous one.

For `CCn1c2ccccc2c2cc(Nc3nc(Nc4ccc5nc(C)cc(N)c5c4)nc(SC)n3)ccc21`, the IC50 worked out at 2800 nM.

In the case of `CNc1nc(Nc2ccc3nc(C)cc(NC)c3c2)nc(Nc2ccc3nc(C)cc(NC)c3c2)n1`, inhibition was half-maximal at 300 nM (IC50). Compared with the last compound, the IC50 is about 9.3-fold lower.

In turn, `CSc1nc(Nc2ccc3nc(C)cc(N)c3c2)nc(Nc2ccc3nc(C)cc(N)c3c2)n1` had an IC50 of 49 nM.
